Results as given in ChEMBL document CHEMBL5705908, “Structural and chemical insights into the covalent-allosteric inhibition of the protein kinase Akt” (Chem Sci, 2019).
Activity calls are given as the source filed them. No cut-off for these calls is given here.

Key:
[1] = biological target: RAC-alpha serine/threonine-protein kinase (Homo sapiens) (UniProt P31749); test: Covalent-allosteric inhibition of full length N-terminal his6-tagged AKT (2 to 446 residues) (unknown origin) expressed in Spodoptera frugiperda Sf9 cells assessed as kinact
Chain of RAC-alpha serine/threonine-protein kinase (Homo sapiens) (P31749 whole entry, the tested form may be a part): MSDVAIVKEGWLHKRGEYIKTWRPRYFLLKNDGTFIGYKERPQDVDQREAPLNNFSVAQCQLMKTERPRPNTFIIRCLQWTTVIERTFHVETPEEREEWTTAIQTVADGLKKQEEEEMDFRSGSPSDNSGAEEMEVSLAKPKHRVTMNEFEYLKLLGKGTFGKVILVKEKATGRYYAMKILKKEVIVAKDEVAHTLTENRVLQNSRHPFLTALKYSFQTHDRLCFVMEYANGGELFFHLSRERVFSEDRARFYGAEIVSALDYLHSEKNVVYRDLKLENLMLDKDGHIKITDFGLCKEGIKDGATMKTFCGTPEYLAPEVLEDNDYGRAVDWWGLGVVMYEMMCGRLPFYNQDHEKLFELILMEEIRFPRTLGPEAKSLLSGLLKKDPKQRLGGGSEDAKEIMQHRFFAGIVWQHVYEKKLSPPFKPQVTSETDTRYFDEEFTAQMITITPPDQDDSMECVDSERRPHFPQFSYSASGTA

[2] = biological target: RAC-alpha serine/threonine-protein kinase (Homo sapiens) (UniProt P31749); test: Covalent-allosteric inhibition of full length N-terminal his6-tagged AKT (2 to 446 residues) (unknown origin) expressed in Spodoptera frugiperda Sf9 cells assessed as kinact/ki ratio
[3] = system: KU-19-19; test: Antiproliferative activity against human KU-19-19 cells assessed as reduction in cell viability incubated for 5 days by celltiter-glo assay; assay type: functional, cell-based; settings: KU-19-19, 120 h
[4] = biological target: RAC-alpha serine/threonine-protein kinase (Homo sapiens) (UniProt P31749); test: Covalent-allosteric inhibition of full length N-terminal his6-tagged AKT (2 to 446 residues) (unknown origin) expressed in Spodoptera frugiperda Sf9 cells at 100 uM incubated for 1 hr by Mass spectrometry analysis
[5] = system: AN3-CA; test: Antiproliferative activity against human AN3-CA cells assessed as reduction in cell viability incubated for 5 days by celltiter-glo assay; assay type: functional, cell-based; settings: 120 h
[6] = system: MCF7; test: Antiproliferative activity against human MCF7 cells assessed as reduction in cell viability incubated for 5 days by celltiter-glo assay; assay type: functional, cell-based; settings: MCF7, 120 h
[7] = system: BT-474; test: Antiproliferative activity against human BT-474 cells assessed as reduction in cell viability incubated for 5 days by celltiter-glo assay; assay type: functional, cell-based; settings: BT-474, 120 h

Structure (SMILES) | Kinact [1] | Ratio [2] | EC50 [3] | further results
NC1(C(=O)N[C@@H](CCO)c2ccc(Cl)cc2)CCN(c2nc[nH]c3nccc2-3)CC1 [CAPIVASERTIB] | – | – | 20.9 µM | –
C=CC(=O)Nc1cccc(C(=O)NC2CCN(Cc3ccc(-c4nc5cc[nH]c(=O)c5cc4-c4ccccc4)cc3)CC2)c1 | – | – | 14.9 µM | –
C=CC(=O)Nc1ccc2[nH]c(=O)n(C3CCN(Cc4ccc(-c5nc6cc[nH]c(=O)c6cc5-c5ccccc5)cc4)CC3)c2c1 | – | – | – | inhibition [4]: Active
CC(C)NC[C@@H](C(=O)N1CCN(c2ncnc3c2[C@H](C)C[C@H]3O)CC1)c1ccc(Cl)cc1 [IPATASERTIB] | – | – | 24 µM | –
C=CC(=O)Nc1ccc(C(=O)NC2CCN(Cc3ccc(-c4nc5cc[nH]c(=O)c5cc4-c4ccccc4)cc3)CC2)cc1 | 0.042 min⁻¹ | 0.002 µM⁻¹ s⁻¹ | 11.3 µM | –
C=CC(=O)Nc1ccc2c(c1)n(C1CCN(Cc3ccc(-c4nc5cc[nH]c(=O)c5cc4-c4ccccc4)cc3)CC1)c(=O)n2C | 0.121 min⁻¹ | 0.19 µM⁻¹ s⁻¹ | – | inhibition [4]: Active
C=CC(=O)Nc1ccc(C(=O)NC2CCN(Cc3ccc(-c4nc5cc[nH]c(=O)c5cc4-c4ccccc4)cc3)CC2)c(F)c1 | 0.085 min⁻¹ | 0.014 µM⁻¹ s⁻¹ | – | –
C=CC(=O)Nc1ccccc1C(=O)NC1CCN(Cc2ccc(-c3nc4cc[nH]c(=O)c4cc3-c3ccccc3)cc2)CC1 | 0.138 min⁻¹ | 0.085 µM⁻¹ s⁻¹ | – | –

The next lines start with results.

Kinact [1] | Ratio [2] | Structure (SMILES) | EC50 [3] | further results
0.078 min⁻¹ | 0.168 µM⁻¹ s⁻¹ | C=CC(=O)Nc1cc(Br)cc(C(=O)NC2CCN(Cc3ccc(-c4nc5cc[nH]c(=O)c5cc4-c4ccccc4)cc3)CC2)c1 | – | –
0.088 min⁻¹ | 0.038 µM⁻¹ s⁻¹ | C=CC(=O)Nc1ccc(C(=O)NC2CCN(Cc3ccc(-c4nc5cc[nH]c(=O)c5cc4-c4ccccc4)cc3)CC2)s1 | – | –
0.071 min⁻¹ | 0.004 µM⁻¹ s⁻¹ | C=CC(=O)Nc1cccc(CNC2CCN(Cc3ccc(-c4nc5cc[nH]c(=O)c5cc4-c4ccccc4)cc3)CC2)c1 | – | –
0.05 min⁻¹ | 0.025 µM⁻¹ s⁻¹ | CN(C)C/C=C/C(=O)Nc1ccc2[nH]c(=O)n(C3CCN(Cc4ccc(-c5nc6cc[nH]c(=O)c6cc5-c5ccccc5)cc4)CC3)c2c1 | – | EC50 [5]: 15.3 µM; EC50 [6]: 20.3 µM; EC50 [7]: 12 µM
